Literature values as cited in patent publication US6054456A, “Substituted piperazine derivatives” (Merck Sharp & Dohme Ltd., priority 1995, dated 2000).

Key:
[1] = humans, therapeutic doses
[2] = test system: human 5-HT1Dα and 5-HT1Dβ receptor subtypes; conditions: cf. WO-A-91/171174, Table 1

SMILES: CNS(=O)(=O)Cc1ccc2[nH]cc(CCN(C)C)c2c1 [sumatriptan]
- adverse events [1]: certain adverse cardiovascular events
- discrimination between the human 5-HT1Dα and 5-HT1Dβ receptor subtypes [2]: barely discriminates between the human 5-HT1Dα and 5-HT1Dβ receptor subtypes
